The values that follow are results of earlier work, collected in patent publication US20080255231A1, “POLYMORPHS OF RIVASTIGMINE HYDROGENTARTRATE” (priority 2007, published 2008).

`CCN(C)C(=O)Oc1cccc([C@H](C)N(C)C)c1` [Rivastigmine hydrogentartrate, [3-[α-(Dimethylamino)-ethyl]phenyl]-N-methylethylcarbamate hydrogentartrate]: the solubility in acetonitrile entry (acetonitrile) was “soluble”. For the same compound, the solubility in ethanol entry (ethanol) is recorded as “soluble”. For the same compound, the “solubility in ethyl acetate” value (ethyl acetate) was “very slightly soluble”. Also, the solubility in n-octanol result (n-octanol) is reported as “slightly soluble”. Moreover, the solubility in water entry (water) is “very soluble”.
